{"source": "patent US20240424115A1", "about": "“LONG-ACTING INTERLEUKIN-15 RECEPTOR AGONISTS AND RELATED IMMUNOTHERAPEUTIC COMPOSITIONS AND METHODS” (Nektar Therapeutics, priority 2017, published 2024)", "key": {"CT-26 cells": {"system": "CT-26 cells", "test": "CT-26 lung metastasis model", "quoted_text": "At day 0, 6-8 week-old female Balb/c mice were inoculated with 1×10^5 mouse CT-26 cells by tail vein injection. On day 1, post 24 h of CT-26 cells being administered, mice were divided into ten groups. […] Each group was assigned one intervention as follows: vehicle, phosphate buffered saline (Group A); native IL-15 alone (Group B); Conjugate 2 at a dose of 0.03 mg/kg (Group C); Conjugate 2 at a dose of 0.1 mg/kg (Group D); Conjugate 2 at a dose of 0.3 mg/kg (Group E); Conjugate 2 at a dose of 1.0 mg/kg (Group F); Conjugate 2 at a dose of 3.0 mg/kg (Group G); for Conjugate 1: vehicle, phosphate buffered saline (Group H); Conjugate 1 at a dose of 0.03 mg/kg (Group I) and Conjugate 1 at a dose of 0.3 mg/kg (Group J). Animals were dosed at days 1, 5, and 10.\nPost 13 days from the date of CT-26 tumor cells administration, mice were anesthetized, and blood and spleen cells were collected for further analysis of immunophenotype markers, while lungs were fixed for 24-48 h in Bouins solution containing picric acid and formaldehyde.\nThe number of lung tumor nodules were counted under a dissection per each lung and mean of lung nodules for each group was determined. The statistical significance was also obtained between the vehicle group vs intervention groups using unpaired students t test.\nBalb/c mice received tail vein injection of 1×10^5 CT-26 colorectal carcinoma cells. The following day, mice (n=9/group) were treated weekly, twice, with Conjugate 1 (0.03 or 0.3 mg/kg) or vehicle control. Five days after the second injection, mice were humanely sacrificed and lung nodules were counted.\nCT-26 mice (n=7-11/group) were injected with anti-asialo GM1 to deplete NK cells or two different controls (lgG or PBS), then injected with 1×10^5 CT-26 tumor cells. Mice were then treated with Conjugate 2 at 0.3 mg/kg dosed on days 1, 5 and 10 post tumor cell injection or vehicle control. Mice were sacrificed and lung nodules were counted three days after the last day of treatment."}, "CD4, CD8, and NK cells [1]": {"system": "CD4, CD8, and NK cells", "test": "In vivo IL-15 signaling (STAT5 phosphorylation in lymphocytes) in non-human primates", "set-up": "species or system cynomolgus monkeys", "conditions": "cyno, single i.v. 0.5 mg/kg", "method": "In the study, cynomolgus monkeys (cyno), one female and one male, were each intravenously administered a single dose of Conjugate 2 (0.5 mg/kg). A series of blood samples were taken from each animal both prior to treatment (day-6 and-1) and at multiple intervals following treatment for assessment by flow cytometry of STAT5 phosphorylation in various types of lymphocytes (CD4, CD8, and NK cells). Results are provided in FIGS. 9A (CD4), 9B (CD8), and 9C (NK).\n(§1) Cynomolgus monkeys (n=3-4 males), were administered a single intravenous injection of Conjugate 1 at 0.003, 0.01, 0.1 mg/kg or a vehicle control. Blood samples were collected at the indicated time points pre and post dose (−5, −2, 1, 2, 3, 4, 5, 6, 7, 10, 14, 17 days) and subjected to flow cytometric analysis to examine pharmacodynamic effects within lymphocyte populations. Proliferation (% Ki-67) and JAK/STAT signaling (% pSTAT5) for NK cells, CD8 T cells, and CD4 T cells were examined, with the results shown in FIGS. 45A-C and FIGS. 46A-C, respectively."}, "[2]": {"system": "NK cells, CD8 T cells, CD4 T cells", "test": "In vivo PD study in non-human primates: lymphocyte cell numbers and proliferation", "set-up": "species or system cynomolgus monkeys", "conditions": "cyno, single i.v. 500 μg/kg", "method": "In the study, cynomolgus monkeys, one female and one male, were administered 500 μg/kg of Conjugate 2 intravenously. A series of blood samples were taken from each animal before treatment (day-6 and -1) and at multiple intervals following single dose treatment for assessment by flow cytometry of lymphocyte cell numbers (NK cells, CD8 T-cells, etc.) and activation.\nNK cell counts were determined to assess the ability of exemplary Conjugate 2 to induce sustained NK cell proliferation in non-human primates; results are shown in FIGS. 16A and 16B. NK cells and their proliferation in blood from cynomolgus monkey were identified by flow cytometry. Acquisition and analysis of NK cells (CD45+ CD3− CD16+) and their proliferation status (CD45+CD3−CD16+ Ki67+) were conducted using BD FACS DIVA software. Absolute values for NK cells and proliferating NK cells were used to calculate % Ki67 positivity within the NK population. Pre and post-treatment values were plotted using Prism.\nCD8 T cell counts were also determined as illustrated in FIG. 17 for each animal from pre-dose to 14 days post-administration. Specifically, CD8 T cells were defined as CD45+CD3+CD4−CD8+. Blood from the monkeys was also subject to immunophenotyping as previously described. In monkey, CD8 T cells increased in a sustained manner, an effect lasting for at least 10 days. This plot further exemplifies the ability of an exemplary long acting IL-15 receptor agonist, Conjugate 2, to induce proliferation and sustained increases in numbers of CD8 T-cells post-administration.\nIn monkey, CD8 TEM cells were defined as CD45+CD3+CD4−CD8+CD45Ra−CD197− and CD8 Tcm were defined as CD45+CD3+CD4−CD8+CD45Ra−CD197+. Immunophenotyping was conducted by flow cytometry with sample acquisition on DIVA software and data analysis on Flowjo software. Graphs were plotted using Prism. […] The figures indicate that both CD8 effector and central memory T cell populations proliferate in response to exemplary Conjugate 2.\nIn this study, cynomolgus monkeys (cyno), one female and one male, were each intravenously administered a single dose of Conjugate 1 (0.1 mg/kg). A series of blood samples were taken from each animal over a 14-day time course and subjected to flow cytometry analysis of various lymphocytes (CD8 T cells, Ki-67 percent positivity within total CD8, CD8 central memory T cells (TCM) and CD8 effector memory T cells (Tem), NK cells and Ki-67 percent positivity of NK cells).\nas §1\nIn cynomolgus monkey, CD8 naïve and memory subpopulations were defined by CD45Ra, CD197 and CD95. […] Within the CD8 Tem, […] and Tscm populations, Conjugate 1 induced robust % Ki-67 expression in a dose dependent manner with detectable increases in proliferation marker positivity starting as early as day 2, reaching a maximum at day 5 and returning to baseline between days 10-14. The Ki-67 expression and kinetics within the CD8 populations support the sustained increase in CD8 T cell numbers shown in Example 27 and FIGS. 47A-D."}, "[3]": {"test": "Single dose PK study in rats (plasma concentration)", "assay_type": "in vivo", "conditions": "rats, single i.v. 0.3, 0.15, 0.075 mg/kg or s.c. 0.15 mg/kg", "method": "Following administration, blood was collected at days 1-7 post administration (with multiple samples collected over the first 24 hours following administration). […]"}, "CD8 T cells": {"system": "CD8 T cells", "test": "Immunophenotypic markers in blood and spleen on Day 13 of the CT-26 lung metastasis study", "assay_type": "in vivo, Balb/c mice", "method": "Blood and spleenocytes were analyzed on Day 13 for the changes in the immunophenotypic markers using flow cytometry and marker antibodies conjugated with various fluorochromes. Conjugate 2 administered at 0.3, 1, and 3 mg/kg induced a dose-dependent increase of CD8 T cells 1.5, 2.5, and 3.3-fold versus vehicle in blood, respectively. Similar observations were made in spleen with increases of 1.3, 1.7, and 2.2-fold at 0.3, 1, and 3 mg/kg dose levels versus vehicle."}, "[4]": {"test": "Single dose PK study in mice (plasma concentration)", "conditions": "C57BL/6 mice, single i.v. 0.3 mg/kg", "quoted_text": "C57BL/6 mice (n=3/group) were administered a single intravenous dose of IL-15 (control) at 0.3 mg/kg) or of Conjugate 2 at a dose of 0.3 mg/kg. Following administration, blood samples were collected at various time points post administration (24 hours, 48 hours, 78 hours, 96 hours). […] Finally, at each time point, plasma concentration of drug was determined.\nFor PK analysis, Conjugate 1 was administered as a single intravenous dose at 0.3 mg/kg in balb/c mice (n=3). Following administration, mice were humanely sacrificed and plasma was collected 24, 48, 72, 96, 120 and 144 hours post treatment. From a separate study, mice were administered a single intravenous dose of IL-15 (0.5 mg/kg). Samples from these mice were collected at the indicated time points within 6 hours of treatment.\nBalb/c mice (n=3/group) were administered a single intravenous dose of IL-15 (500 ug/kg) or of Conjugate 1 at 10, 30, 100, 300 and 1000 μg/kg. Blood samples were collected at the indicated time points post administration (conjugate 1:24, 48, 72, 96, 120, 144, 240 hours; IL-15 control: 0.03, 0.08, 0.25, 0.5, 1, 2, 4, 6, 8, hours) and plasma concentration of drug was determined."}, "CD4, CD8, and NK cells [5]": {"system": "CD4, CD8, and NK cells", "test": "In vivo IL-15 signaling (STAT5 phosphorylation in lymphocytes) in mice", "conditions": "C57BL/6 mice, single i.v. 0.3 mg/kg", "source_text": "Conventional approaches, such as those involving radiolabeling a compound, administering the compound in vivo, and determining its clearance, can be used to assess whether a compound proposed to be a long-acting, IL-15 R agonist is “long-acting” (i.e., has a clearance that is longer than that of IL-15 administered in the same in vivo system). For the purposes herein, the long acting nature of a long-acting IL-15 R agonist may be, and is typically determined using flow cytometry to measure STAT5 phosphorylation in lymphocytes at various time points after administration of the agonist to be evaluated in mice. As a reference, the signal is lost by around 24 hours with IL-15, but is sustained for a period greater than that for a long-acting IL-15 agonist.\nMice were dosed as described in Example 6 above to assess in-vivo signaling as assessed by degree of STAT5 phosphorylation. Degree of STAT5 phosphorylation in various lymphocytes (CD4, CD8, and NK cells) was assessed by staining whole blood for leukocyte surface markers and pSTAT5, followed by measurement by flow cytometry. Results are shown in FIGS. 8A and 8 B for IL-15 and for Conjugate 2, respectively.\n[PK methods previously described herein].\nSTAT5 phosphorylation in CD4 T cells was determined by using a CD3+CD4+CD8-pSTAT5+ marker combination. FIG. 43 is a plot of pSTAT5 phosphorylation percent positivity within CD4 T cells over time (at 0.25, 1, 6, 24, 48, 72, 96 and 120 hours post administration) at a dose of 0.03 mg/kg (blue, solid squares) or 0.3 mg/kg (orange, solid circles). The vehicle over time (black) and pre-dose (open circles) levels are also shown."}, "IL-15Rα:Fc [6]": {"target": "IL-15Rα:Fc", "sequence (Q13261 31-205)": "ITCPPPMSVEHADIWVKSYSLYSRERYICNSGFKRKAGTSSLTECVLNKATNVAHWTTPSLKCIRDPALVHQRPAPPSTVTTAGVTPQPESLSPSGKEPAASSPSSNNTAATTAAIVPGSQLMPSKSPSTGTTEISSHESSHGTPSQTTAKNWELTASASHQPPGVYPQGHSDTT", "test": "SPR (BIAcore), IL-15Rα:Fc captured by immobilised goat anti-human Fc, KD from kd/ka"}, "IL-15Rα:Fc [7]": {"target": "IL-15Rα:Fc", "test": "SPR (BIAcore), IL-15Rα:Fc captured by immobilised goat anti-human Fc, test article injected in 3-fold dilutions from 10 µM"}, "IL-15Rα:Fc [8]": {"target": "IL-15Rα:Fc", "test": "SPR (BIAcore), compared with unmodified IL-15"}}, "data": [{"substance": "N-(2-methoxyPEG-ethyl)-7-(4-((2-methoxyPEG-ethyl) amino)-4-oxobutyl)-9-ethyl-9 H-fluorene-4-carboxamide carbamate-IL-15 [Conjugate 2]", "values": [{"measurement": "efficacy (lung nodule inhibition) after NK cell depletion", "setting": "CT-26 cells; 0.3 mg/kg days 1, 5, 10, anti-asialo GM1", "value": "abolished when mice lacked NK cells"}, {"measurement": "reduction in lung metastases in comparison to vehicle", "setting": "CT-26 cells; Example 13, i.v. days 1, 5, 10, dose not stated", "value": 65, "unit": "%"}, {"measurement": "return of STAT5 phosphorylation to near pre-dose levels", "setting": "CD4, CD8, and NK cells [1]", "value": "5 to 10", "unit": "days"}, {"measurement": "CD8 TEM and TCM cell counts", "setting": "[2]", "value": "induces a significant and sustained increase in CD8 effector and central memory T cell populations"}, {"measurement": "NK cell proliferation (Ki67, cell counts)", "setting": "[2]", "value": "effective to induce sustained NK cell proliferation"}, {"measurement": "duration of CD8 T cell increase", "setting": "[2]", "value": "at least 10 days"}, {"measurement": "exposure to drug", "setting": "[3]", "value": "sustained and dose-proportional exposure to drug"}, {"measurement": "increase of Bcl-2+MFI in CD8", "setting": "CD8 T cells; blood and spleen", "value": "≤ 1.5", "unit": "fold"}, {"measurement": "increase of CD8 T cells versus vehicle", "setting": "CD8 T cells; blood, 0.3 mg/kg", "value": 1.5, "unit": "fold"}, {"measurement": "increase of CD8 T cells versus vehicle", "setting": "CD8 T cells; blood, 1 mg/kg", "value": 2.5, "unit": "fold"}, {"measurement": "increase of CD8 T cells versus vehicle", "setting": "CD8 T cells; blood, 3 mg/kg", "value": 3.3, "unit": "fold"}, {"measurement": "CD8 T cell proliferation (Ki-67) change compared to vehicle", "setting": "CD8 T cells; blood, high dose 3 mg/kg", "value": 5.3, "unit": "fold"}, {"measurement": "CD8 T cell proliferation (Ki-67) change compared to vehicle", "setting": "CD8 T cells; blood, low dose 0.3 mg/kg", "value": 1.7, "unit": "fold"}, {"measurement": "increase of CD8 T cells versus vehicle", "setting": "CD8 T cells; spleen, 0.3 mg/kg", "value": 1.3, "unit": "fold"}, {"measurement": "increase of CD8 T cells versus vehicle", "setting": "CD8 T cells; spleen, 1 mg/kg", "value": 1.7, "unit": "fold"}, {"measurement": "increase of CD8 T cells versus vehicle", "setting": "CD8 T cells; spleen, 3 mg/kg", "value": 2.2, "unit": "fold"}, {"measurement": "CD8 T cell proliferation (Ki-67) change compared to vehicle", "setting": "CD8 T cells; spleen, high dose 3 mg/kg", "value": 6.9, "unit": "fold"}, {"measurement": "CD8 T cell proliferation (Ki-67) change compared to vehicle", "setting": "CD8 T cells; spleen, low dose 0.3 mg/kg", "value": 2.5, "unit": "fold"}, {"measurement": "CD8 T cell proliferation (Ki-67) change compared to vehicle", "setting": "CD8 T cells; spleen, mid dose 1 mg/kg", "value": 5.7, "unit": "fold"}, {"measurement": "T1/2", "setting": "[4]", "value": "20 to 30", "unit": "h"}, {"measurement": "time with measurable concentrations in plasma", "setting": "[4]", "value": "greater than 1 week"}, {"measurement": "duration of in-vivo STAT5 phosphorylation activity in NK and CD8 cells", "setting": "CD4, CD8, and NK cells [5]", "value": "> 72", "unit": "h"}]}, {"substance": "mono-mPEG-SBA40K-IL-15 (Conjugate 1) (from UniProt P40933 49-162) (ligand)", "values": [{"measurement": "Kd", "setting": "IL-15Rα:Fc [6]", "value": 0.209, "unit": "nM"}, {"measurement": "koff", "setting": "IL-15Rα:Fc [7]", "value": 0.000103, "unit": "s⁻¹"}, {"measurement": "kon", "setting": "IL-15Rα:Fc [7]", "value": 492000, "unit": "M⁻¹ s⁻¹"}, {"measurement": "percent of the alpha receptor affinity of IL-15 retained", "setting": "IL-15Rα:Fc [8]", "value": 80, "unit": "%"}]}]}
